# Experimental data as given in US12390482B2, “Neurolytic agents and methods of using and identifying same” (priority 2021, dated 2025).
# What was measured:
# [1] = tested on: sciatic nerve of WT mice; assay: Local application to sciatic nerve using Surgifoam wrap, WT mice; format: in vivo, mouse
# Method: (§1) Mice: All experiments were performed in accordance with the protocols of the Institutional Animal Care and Use Committee of Washington University in St. Louis and the guidelines for the Care and Use of Laboratory Animals of the National Institutes of Health. Mice were housed on a 12 hr light dark cycle with less than 5 mice per cage and with water and food available at all times. Male and female mice were used for all experiments. 5-week old mice were used for IP injection and 5-6-month old mice were used for Surgifoam wrap treatments. Sarm1 KO mice were a gift from Macro Colonna at Department of Pathology and Immunology, Washington University School of Medicine in St. Louis, and C57BL/6 mice were purchased from Jackson Laboratory.
# (§2) IP injection and local application of 3-AP to sciatic nerve using Surgifoam wrap 5 week-old mice were used for IP injection experiment. Suitable skin incisions were made at the mid-thigh level of 5 week-old mice, followed by a small incision or blunt dissection to the muscle fascia to permit retraction of the biceps femoris and gluteus superficialis muscles to expose the sciatic nerve. The nerve was carefully separated from surrounding connective tissue and then a 0.5×1 cm piece of sterile absorbable hemostatic material (Surgifoam) soaked in 500 mM 3-AP (or saline control) was wrapped around the sciatic nerve. Wound clips, and/or tissue adhesive were used to close the incision.
# Tissue processing: Tibial nerves from both control and 3-AP treated sides was dissected out 7 days post-surgery. The distal 2 cm portion of the nerve was fixed in 4% paraformaldehyde for 1 hr at room temperature, then moved to 30% sucrose and embedded in OCT for cryosectioning in the following day. Immunocytochemistry was performed on tibial cryosections using NF200 (Sigma N4142, 1:1000) and MBP (Millipore MAB386, 1:100) followed by anti-rabbit-Alexa488 (1:500) and anti-rat-Cy3 (1:500). The proximal 2 cm portion of the sciatic nerves were fixed in 3% Glutaraldehyde for processing and embedding in epoxy/plastic. Toluidine blue thick sections (400-600 nm thickness) were cut and axon counting was performed using binary image analysis.
# [2] = tested on: WT mouse embryonic dorsal root ganglion (DRG) neurons; assay: Axon degeneration in cultured WT DRG neurons; format: cell-based; settings: WT DRG neurons
# Method: (§3) DRG neuron culture: Mouse DRG culture was as described previously. Mouse DRGs were dissected at embryonic day 13.5. Approximately 50 ganglia were collected from each embryo and dissociated in 0.05% Trypsin containing 0.02% EDTA (Gibco) at 37° C. for 20 min. The DRG neurons were washed 3 times with DRG culture medium after incubation with Trypsin. Cells were seeded as spot cultures in 96-tissue culture plates (Corning) coated with 0.1 mg/ml poly-D-lysine and 0.1 mg/ml laminin. They were cultured in Neurobasal (Gibco) containing 2% B27 (Invitrogen), 100 ng/ml 2.5S NGF (Harlan Bioproducts), and 1 μM 5-fluoro-2′-deoxyuridine/1 μM uridine. The culture medium was exchanged with fresh DRG culture medium every 2-3 days. Lentiviruses were added 3 days after seeding (DIV3).
# […] After axon transection, bright-field images of distal axons were taken using the Operetta automated imaging system (PerkinElmer). Axon degeneration indexes were calculated from these bright-field images using ImageJ (NIH). The axon degeneration index was calculated as the ratio of fragmented axon areas as previously described. Indexes were calculated as the average of six fields per well.
# [3] = tested on: Sarm1 KO DRG neurons; assay: Axon degeneration and neuronal death in cultured Sarm1 KO DRG neurons; format: cell-based, mouse; settings: escalating doses, even at 1 mM
# Method: as §3
# (§4) Quantification of axon degeneration: After culture for 7 days, axotomy was performed by cutting DRG axons manually with a razor blade. After axon transection, bright-field images of distal axons were taken using the Operetta automated imaging system (PerkinElmer). Axon degeneration indexes were calculated from these bright-field images using ImageJ (NIH). The axon degeneration index was calculated as the ratio of fragmented axon areas as previously described. Indexes were calculated as the average of six fields per well.
# [4] = tested on: rabbits, dogs, mice and rats; settings: early studies; could be blocked by administration of Nam; cited from earlier work
# [5] = tested on: WT mice; assay: Survival after IP injection of 3-AP, WT mice; format: in vivo, mouse
# Method: as §1, §2
# [6] = tested on: WT mouse embryonic dorsal root ganglion (DRG) neurons; assay: MTT assay of neuronal death in WT DRG neurons; format: cell-based; settings: 12 hr treatment
# Method: as §3
# [7] = tested on: sciatic nerve of Sarm1 KO mice; assay: Local application to sciatic nerve using Surgifoam wrap, Sarm1 KO mice; format: in vivo, mouse; settings: 500 mM 3-AP, seven days
# Method: as §1
# as §2, with “Wound clips, and/or tissue adhesive were used to close the incision.” left out
# [8] = tested on: Sarm1 KO DRG neurons expressing W103A, R157A or K193R SARM1 mutants or wildtype SARM1; assay: Axon degeneration in Sarm1 KO DRG neurons infected with lentivirus expressing wildtype or allosteric pocket mutant SARM1; format: cell-based, mouse; settings: 3-AP 300 μM
# Method: as §3
# Lentivirus production: Lentivirus production was performed as described previously. HEK 293T cells were seeded with the density of 1×10^6 in 35 mm well tissue culture plate (Corning). […]
# as §4, with “After axon transection, bright-field images of distal axons were taken using the Operetta automated imaging system (PerkinElmer).” left out
# [9] = tested on: Sarm1 KO mice; assay: Survival after IP injection of 3-AP, Sarm1 KO mice; format: in vivo, mouse
# Method: as §1
# as §2, with “Wound clips, and/or tissue adhesive were used to close the incision.” left out
# [10] = tested on: WT DRG neurons; assay: Metabolite measurement by LC-MS/MS in WT DRG neurons; format: cell-based, mouse
# Method: as §3
# Metabolite measurement using LC-MS/MS: Lyophilized samples were reconstituted with 50 μl of 5 mM ammonium formate and centrifuged at 12,000 g for 10 min. Cleared supernatants were transferred to sample vials. Serial dilutions of standards for each metabolite in 5 mM ammonium formate were used for calibration. HPLC-mass spectrometry analysis was performed on an Agilent 1290 Infinity II liquid chromatography system (Agilent Technologies, Santa Clara, CA) with a flexible pump, multisampler, sample cooler and an MCT containing an Atlantis T3 column (2.1×150 mm, 3 μm) and VanGuard guard cartridge (2.1 mm×5 mm, 3 μm) (Waters, Milford, MA), coupled to an Agilent 6470 Triple Quad mass spectrometer (Agilent Technologies, Santa Clara, CA). The mobile phase (0.15 ml/min) was 5 mM ammonium formate in water (A) and 100% methanol (B). The column was equilibrated with 0% B, maintained after injection for 2 min, then a linear gradient to 20% B applied over 4 min. The column was then ramped to 50% B over 2 min, and held at 50% for 2 min, then reverted back to 0% B over the next 5 min and allowed to re-equilibrate at 0% B for 9 min. The total run time was 24 min per sample. […] Raw data were acquired and quantified using MassHunter Workstation software version B.08.00 for 6400 Series Triple Quadrupole (Agilent Technologies, Santa Clara, CA).
# [11] = tested on: Sarm1 KO mice; assay: cADPR levels in sciatic nerve after IP injection, Sarm1 KO mice; format: in vivo, mouse; settings: similar IP injections
# Method: as §1
# (§5) Metabolite measurement using LC-MS/MS: Lyophilized samples were reconstituted with 50 μl of 5 mM ammonium formate and centrifuged at 12,000 g for 10 min. Cleared supernatants were transferred to sample vials. Serial dilutions of standards for each metabolite in 5 mM ammonium formate were used for calibration. […] Raw data were acquired and quantified using MassHunter Workstation software version B.08.00 for 6400 Series Triple Quadrupole (Agilent Technologies, Santa Clara, CA). […]
# [12] = tested on: SARM1; assay: cADPR levels in sciatic nerve after IP injection, WT mice; format: in vivo, mouse; settings: 275 mg/kg IP, 3 days post-administration
# Method: as §1, §5
# [13] = tested on: Sarm1 KO DRG neurons; assay: Metabolite measurement by LC-MS/MS in Sarm1 KO DRG neurons; format: cell-based, mouse; settings: 3-AP-treated Sarm1 KO neurons
# Method: as §3
# Metabolite measurement using LC-MS/MS: Lyophilized samples were reconstituted with 50 μl of 5 mM ammonium formate and centrifuged at 12,000 g for 10 min. Cleared supernatants were transferred to sample vials. Serial dilutions of standards for each metabolite in 5 mM ammonium formate were used for calibration. […] Raw data were acquired and quantified using MassHunter Workstation software version B.08.00 for 6400 Series Triple Quadrupole (Agilent Technologies, Santa Clara, CA).
compound,measurement,setting,value
"CC(=O)c1cccnc1 [3-AP, 3-acetylpyridine]",axon loss in tibial nerve distal to treatment site,"[1]; WT mice, 500 mM 3-AP, seven days, vs contralateral or saline-treated nerve",dramatic loss of axons
same,gait after local treatment,"[1]; WT mice, Surgifoam soaked in 500 mM 3-AP on sciatic nerve",rapidly develop an abnormal gait
same,axon damage in the proximal sciatic nerve,"[1]; WT mice, proximal to site of 500 mM 3-AP application",no detectable axon damage
same,systemic harm after local application,[1]; local application to peripheral nerve,without apparent systemic harm
same,doses at which axons rapidly degenerate at a rate similar to that after transection,[2],above 250 μM
same,dose at which axons begin to degenerate slowly,[2]; axonal integrity at multiple time points,250 µM
same,effect on axon degeneration and neuronal death,[3],no effect
same,toxicity on administration to animals,[4],severe neurotoxicity and death
same,survival,[5]; 275 mg/kg IP,generally survive
same,survival,[5]; 400 mg/kg IP,die rapidly
same,lethality,[5]; 500 mg/kg IP,rapidly lethal
same,neuronal death (MTT assay),[6],causes neuronal death at similar doses
same,axon loss in treated nerve,[7],well protected from axon loss
same,"axons of Sarm1 KO neurons expressing SARM1 W103A, R157A or K193R",[8]; allosteric pocket mutants,remain intact
same,axon degeneration in Sarm1 KO neurons expressing wildtype SARM1,[8]; lentiviral wildtype SARM1,restores 3-AP-induced axon degeneration
same,lethality,"[9]; 275 mg/kg IP, n=5",no lethality
same,survival and phenotype,[9]; up to 500 mg/kg IP,survive and have no obvious phenotype
same,NAD+ and ATP levels,"[10]; 3-AP 300 μM, WT neurons",Substantial NAD^+ and ATP depletion
same,decline in NMN,"[10]; within four hours, p<0.001, n=3",greater than 50%
same,cADPR levels in the sciatic nerve,[11],no alteration in cADPR levels
same,increase of cADPR levels in the sciatic nerve,[12],3-4 fold
same,"changes in the levels of NAD+, ATP, or cADPR",[13],no significant changes
